Source: patent US20110130380A1, “Heteroaryl Kinase Inhibitors” (priority 2009, published 2011)

The molecules below were run against Cdk9/cyclinT1 (Homo sapiens, UniProt P50750) (assay: Cdk9/cyclinT1 IMAP Protocol (fluorescence polarization kinase assay)). Settings: Cdk9_cyclinT1_IC50, Table V; generated using one of the two Cdk9/cyclinT1 assays (IMAP or Alpha Screen), not stated which; ATP 6 uM.
Chain of Cdk9/cyclinT1 (P50750 whole entry): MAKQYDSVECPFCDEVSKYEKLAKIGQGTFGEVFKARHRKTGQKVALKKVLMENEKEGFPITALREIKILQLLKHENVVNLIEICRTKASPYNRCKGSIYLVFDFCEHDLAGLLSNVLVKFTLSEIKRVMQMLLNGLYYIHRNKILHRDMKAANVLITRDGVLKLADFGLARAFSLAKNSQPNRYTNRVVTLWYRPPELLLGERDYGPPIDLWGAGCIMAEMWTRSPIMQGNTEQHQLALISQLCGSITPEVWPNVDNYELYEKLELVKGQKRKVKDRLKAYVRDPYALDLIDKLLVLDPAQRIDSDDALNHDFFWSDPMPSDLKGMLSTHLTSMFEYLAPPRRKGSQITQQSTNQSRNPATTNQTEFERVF
Chain of Cdk9/cyclinT1 (O60563 whole entry partner): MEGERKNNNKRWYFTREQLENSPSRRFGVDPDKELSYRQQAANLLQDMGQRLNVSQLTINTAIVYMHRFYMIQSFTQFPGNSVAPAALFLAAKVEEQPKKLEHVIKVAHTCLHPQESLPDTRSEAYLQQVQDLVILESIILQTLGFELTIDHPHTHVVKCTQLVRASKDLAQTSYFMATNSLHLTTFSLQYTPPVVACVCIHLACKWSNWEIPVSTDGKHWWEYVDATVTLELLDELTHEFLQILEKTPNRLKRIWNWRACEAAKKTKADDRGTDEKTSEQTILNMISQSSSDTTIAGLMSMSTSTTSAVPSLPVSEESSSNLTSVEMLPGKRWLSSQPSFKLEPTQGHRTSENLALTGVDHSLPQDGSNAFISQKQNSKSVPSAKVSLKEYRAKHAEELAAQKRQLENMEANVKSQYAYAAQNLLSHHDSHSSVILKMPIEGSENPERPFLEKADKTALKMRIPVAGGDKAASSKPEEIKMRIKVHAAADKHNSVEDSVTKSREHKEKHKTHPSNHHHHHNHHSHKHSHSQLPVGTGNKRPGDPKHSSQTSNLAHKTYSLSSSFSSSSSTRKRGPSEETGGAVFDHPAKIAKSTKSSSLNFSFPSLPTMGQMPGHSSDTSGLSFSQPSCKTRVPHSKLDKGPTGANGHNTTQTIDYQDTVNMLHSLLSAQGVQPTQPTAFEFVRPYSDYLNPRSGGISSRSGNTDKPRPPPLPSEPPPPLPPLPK
COC[C@@H]1CC[C@@H](C(=O)Nc2cc(-c3cccc(NCC4CCOCC4)n3)c(Cl)cn2)CN1 (racemic) [Example 221, (3R,6S)-/(3S,6R)-6-Methoxymethyl-piperidine-3-carboxylic acid {5′-chloro-6-[(tetrahydro-pyran-4-ylmethyl)-amino]-[2,4′]bipyridinyl-2′-yl}-amide] showed an IC50 of 3 nM. Molecule O=C(Nc1cc(-c2cccc(NCc3cccc(F)c3)n2)c(Cl)cn1)C1CCCCC1 [Example 2, Cyclohexanecarboxylic acid [5′-chloro-6-(3-fluoro-benzylamino)-[2,4′]bipyridinyl-2′-yl]-amide] has an IC50 of 134 nM. For O=C(Nc1cc(-c2cccc(NCC3CCOCC3)n2)c(Cl)cn1)[C@H]1CN[C@@H](CF)C1 [Example 179, (3R,5R)-5-Fluoromethyl-pyrrolidine-3-carboxylic acid {5′-chloro-6-[(tetrahydro-pyran-4-ylmethyl)-amino]-[2,4′]bipyridinyl-2′-yl}-amide], the IC50 was 7 nM. In the case of COC1(CNc2ccc(Cl)c(-c3cc(NC(=O)[C@@H]4CCCNC4)ncc3Cl)n2)CCOCC1 [Example 192, (R)-Piperidine-3-carboxylic acid {3,5′-dichloro-6-[(4-methoxy-tetrahydro-pyran-4-ylmethyl)-amino]-[2,4′]bipyridinyl-2′-yl}-amide], the IC50 is reported as 1 nM. CC1(C)COC[C@@H](CNc2cccc(-c3cc(NC(=O)[C@@H]4CCCNC4)ncc3Cl)n2)O1 (single isomer, unassigned) [Example 233] was tested, and the IC50 was 1 nM. CC[C@@H]1CC[C@@H](C(=O)Nc2cc(-c3ccc(F)c(NCC4CCOCC4)n3)c(Cl)cn2)CN1 (single isomer, unassigned) [Example 256] was tested, and the IC50 was 1 nM. Work on COC[C@@H]1C[C@@H](C(=O)Nc2cc(-c3nc(NCC4CCOC(C)(C)C4)ccc3Cl)c(Cl)cn2)CN1 (stereo partly drawn) [Example 186, (3R,5S)-5-Methoxymethyl-pyrrolidine-3-carboxylic acid {3,5′-dichloro-6-[(2,2-dimethyl-tetrahydro-pyran-4-ylmethyl)-amino]-[2,4′]bipyridinyl-2′-yl}-amide] yielded an IC50 of 1 nM. With CC(C)CCNc1cccc(-c2cc(NC(=O)[C@@H]3CCCNC3)ncc2Cl)n1 [Example 23, (R)-Piperidine-3-carboxylic acid [5′-chloro-6-(3-methyl-butylamino)-[2,4′]bipyridinyl-2′-yl]-amide] the IC50 was 9 nM. CC1(CNc2cccc(-c3cc(NC(=O)[C@@H]4CCCNC4)ncc3Cl)n2)CCOCC1 [Example 207, (R)-Piperidine-3-carboxylic acid {5′-chloro-6-[(4-methyl-tetrahydro-pyran-4-ylmethyl)-amino]-[2,4′]bipyridinyl-2′-yl}-amide] showed an IC50 of 1 nM. Molecule C[C@H](Nc1cccc(-c2cc(NC(=O)[C@@H]3CCCNC3)ncc2Cl)n1)C1CCOCC1 [Example 136, (R)-Piperidine-3-carboxylic acid {5′-chloro-6-[(S)-1-(tetrahydro-pyran-4-yl)-ethylamino]-[2,4′]bipyridinyl-2′-yl}-amide] has an IC50 of 13 nM. Molecule CC1(C)COC[C@@H](CNc2nc(-c3cc(NC(=O)[C@@H]4CCCNC4)ncc3Cl)ccc2F)O1 (single isomer, unassigned) [Example 263] has an IC50 of 1 nM. With COC1(CNc2nc(-c3cc(NC(=O)[C@@H]4CCCNC4)ncc3Cl)ccc2F)CCOCC1 [Example 248, (R)-Piperidine-3-carboxylic acid {5′-chloro-5-fluoro-6-[(4-methoxy-tetrahydro-pyran-4-ylmethyl)-amino]-[2,4′]bipyridinyl-2′-yl}-amide] the IC50 was 3 nM. For C[C@@H]1CNC[C@H](C(=O)Nc2cc(-c3cccc(NCC4CCOCC4)n3)c(Cl)cn2)C1 (single isomer, unassigned) [Example 128], the IC50 was 1 nM. For CC1(C)CO[C@@H](CNc2nc(-c3cc(NC(=O)[C@@H]4CCCNC4)ncc3Cl)ccc2F)CO1 (single isomer, unassigned) [Example 264], the IC50 was 1 nM. O=C(Nc1cc(-c2cccc(NCC3CCOCC3)n2)c(Cl)cn1)C1(F)CCCNC1 (single isomer, unassigned) [Example 117] was tested, and the IC50 was 230 nM. In the case of CC1(C)CO[C@H](CNc2nc(-c3cc(NC(=O)[C@@H]4CCCNC4)ncc3Cl)ccc2F)CO1 (single isomer, unassigned) [Example 265], the IC50 is reported as 1 nM. Molecule O=C(Cc1cccnc1)Nc1cc(-c2cccc(NCC3CCOCC3)n2)c(Cl)cn1 [Example 66, N-{5′-Chloro-6-[(tetrahydro-pyran-4-ylmethyl)-amino]-[2,4′]bipyridinyl-2′-yl}-2-pyridin-3-yl-acetamide] has an IC50 of 9 nM. O=C(Nc1cc(-c2cccc(NC3CCOCC3)n2)c(Cl)cn1)[C@@H]1CCCNC1 [Example 33, (R)-Piperidine-3-carboxylic acid [5′-chloro-6-(tetrahydro-pyran-4-ylamino)-[2,4′]bipyridinyl-2′-yl]-amide] gave an IC50 of 76 nM. O=C(Nc1cc(-c2nc(NCC3CCOCC3)ccc2Cl)c(Cl)cn1)[C@@H]1CCNC1 [Example 88, (R)-Pyrrolidine-3-carboxylic acid {3,5′-dichloro-6-[(tetrahydro-pyran-4-ylmethyl)-amino]-[2,4′]bipyridinyl-2′-yl}-amide] was tested, and the IC50 was < 8 nM. In the case of N[C@@H]1CC[C@H](C(=O)Nc2cc(-c3nc(NCC4CCOCC4)ccc3Cl)c(Cl)cn2)C1 [Example 99, (1S,3R)-3-Amino-cyclopentanecarboxylic acid {3,5′-dichloro-6-[(tetrahydro-pyran-4-ylmethyl)-amino]-[2,4′]bipyridinyl-2′-yl}-amide], the IC50 is reported as < 8 nM. In the case of COC(=O)N[C@@H]1CC[C@H](C(=O)Nc2cc(-c3nc(NCC4CCOCC4)ccc3Cl)c(Cl)cn2)C1 [Example 106, ((lR,3S)-3-{3,5′-Dichloro-6-[(tetrahydro-pyran-4-ylmethyl)-amino]-[2,4′]bipyridinyl-2′-ylcarbamoyl}-cyclopentyl)-carbamic acid methyl ester], the IC50 is reported as < 8 nM. O=C(Nc1cc(-c2nc(NCC3CCOCC3)ccc2Cl)c(Cl)cn1)C1CNCCOC1 (single isomer, unassigned) [Example 214] showed an IC50 of 1 nM. C[C@H]1CC[C@H](C(=O)Nc2cc(-c3cccc(NCC4CCOCC4)n3)c(Cl)cn2)CN1 (single isomer, unassigned) [Example 147] gave an IC50 of 5 nM. For N[C@@H]1CC[C@H](C(=O)Nc2cc(-c3cccc(NCC4CCOCC4)n3)c(Cl)cn2)C1 [Example 47, (1S,3R)-3-Amino-cyclopentanecarboxylic acid {5′-chloro-6-[(tetrahydro-pyran-4-ylmethyl)-amino]-[2,4′]bipyridinyl-2′-yl}-amide], the IC50 was < 8 nM. With COC[C@@H]1C[C@@H](C(=O)Nc2cc(-c3ccc(F)c(NCC4(OC)CCOCC4)n3)c(Cl)cn2)CN1 [Example 253, (3R,5S)-5-Methoxymethyl-pyrrolidine-3-carboxylic acid {5′-chloro-5-fluoro-6-[(4-methoxy-tetrahydro-pyran-4-ylmethyl)-amino]-[2,4′]bipyridinyl-2′-yl}-amide] the IC50 was 1 nM. CS(=O)(=O)N1CCC[C@@H](C(=O)Nc2cc(-c3cccc(NCC4CCOCC4)n3)c(Cl)cn2)C1 [Example 83, (R)-1-Methanesulfonyl-piperidine-3-carboxylic acid {5′-chloro-6-[(tetrahydro-pyran-4-ylmethyl)-amino]-[2,4′]bipyridinyl-2′-yl}-amide] showed an IC50 of 482 nM. In the case of CC1(C)CO[C@@H](CNc2cccc(-c3cc(NC(=O)[C@@H]4CCCNC4)ncc3Cl)n2)CO1 (single isomer, unassigned) [Example 231], the IC50 is reported as 1 nM. For CC1(C)CC(CNc2ccc(Cl)c(-c3cc(NC(=O)[C@@H]4CCCNC4)ncc3Cl)n2)CCO1 (stereo partly drawn) [Example 132, (R)-Piperidine-3-carboxylic acid {3,5′-dichloro-6-[(2,2-dimethyl-tetrahydro-pyran-4-ylmethyl)-amino]-[2,4′]bipyridinyl-2′-yl}-amide], the IC50 was < 8 nM. O=C(Nc1cc(-c2nc(NCC3CCOCC3)ccc2Cl)c(Cl)cn1)C1CNCCOC1 (single isomer, unassigned) [Example 213] was tested, and the IC50 was 2 nM. In the case of O=C(Nc1cc(-c2cccc(NCC3CCOCC3)n2)c(Cl)cn1)[C@@H]1CCCO1 [Example 67, (S)-Tetrahydro-furan-2-carboxylic acid {5′-chloro-6-[(tetrahydro-pyran-4-ylmethyl)-amino]-[2,4′]bipyridinyl-2′-yl}-amide], the IC50 is reported as 396 nM. Molecule CC1(C)COCC(CNc2nc(-c3cc(NC(=O)[C@@H]4CCCNC4)ncc3Cl)ccc2F)O1 (stereo partly drawn) [Example 254, (R)-Piperidine-3-carboxylic acid {5′-chloro-6-[(6,6-dimethyl-[1,4]dioxan-2-ylmethyl)-amino]-5-fluoro-[2,4′]bipyridinyl-2′-yl}-amide] has an IC50 of 1 nM. CC[C@H]1CC[C@@H](C(=O)Nc2cc(-c3cccc(NCC4CCOCC4)n3)c(Cl)cn2)CN1 [Example 247, (3R,6S)-6-Ethyl-piperidine-3-carboxylic acid {5′-chloro-6-[(tetrahydro-pyran-4-ylmethyl)-amino]-[2,4′]bipyridinyl-2′-yl}-amide] showed an IC50 of 7 nM. Molecule C[C@@H](Nc1cccc(-c2cc(NC(=O)[C@@H]3CCCNC3)ncc2Cl)n1)C1CCCCC1 [Example 76, (R)-Piperidine-3-carboxylic acid [5′-chloro-6-((R)-1-cyclohexyl-ethylamino)-[2,4′]bipyridinyl-2′-yl]-amide] has an IC50 of 15 nM.

Same assay, conditions: Cdk9_cyclinT1_IC50, generated using one of the two Cdk9/cyclinT1 assays (IMAP or Alpha Screen), not specified per value; ATP 6 uM
In the case of O=C(Nc1cc(-c2cncc(NCC3CCOCC3)c2)c(Cl)cn1)[C@@H]1CCCNC1 [Example 301, (R)-Piperidine-3-carboxylic acid {5′-chloro-5-[(tetrahydro-pyran-4-ylmethyl)-amino]-[3,4′]bipyridinyl-2′-yl}-amide], the IC50 is reported as < 8 nM. CC(C)(C)OC(=O)N1CCC[C@@H](C(=O)Nc2cc(-c3cncc(NCC4CCOCC4)c3)c(Cl)cn2)C1 [Example 304, (R)-3-{5′-Chloro-5-[(tetrahydro-pyran-4-ylmethyl)-amino]-[3,4′]bipyridinyl-2′-ylcarbamoyl}-piperidine-1-carboxylic acid tert-butyl ester] gave an IC50 of 81 nM.
